A short description of data set [1]: Compatibility study of carbidopa-levodopa granule raw materials and excipients at 40°C/75% RH. It is filed as physicochemical. From the text:
(§1) After preparation into the formulation, there was a risk of exceeding the limit for related substances in terms of stability.

Data set [2] is described as follows: Compatibility study of voriconazole granule raw material and excipients at 40°C/75% RH. It is filed as physicochemical.
Source text: as §1

Molecules are shown by their SMILES.

`C[C@@](Cc1ccc(O)c(O)c1)(NN)C(=O)O` [Carbidopa]: in data set [1], the Appearance entry is “No change”. For the same compound, the figures for the “Total impurities (%)” value in data set [1] (0 Days), in data set [1] (14 Days) and in data set [1] (28 Days) were 0.10%, 0.08% and 0.07%, respectively.
`N[C@@H](Cc1ccc(O)c(O)c1)C(=O)O` [Levodopa]: the Appearance entry in data set [1] is reported as “No change”. The “Total impurities (%)” value in data set [1] (0 Days) was “Not detected”; in data set [1] (14 Days), 0.03%; in data set [1] (28 Days) it was 0.07%.
With `C[C@@H](c1ncncc1F)[C@](O)(Cn1cncn1)c1ccc(F)cc1F` [Voriconazole], the Appearance result in data set [2] is listed as “No change”. For the same compound, the Total impurities (%) in data set [2] (0 Days), in data set [2] (14 Days) and in data set [2] (28 Days) was 0.01% each time.

The values are drawn from patent EP4740962A1, “PHARMACEUTICAL COMPOSITION, FORMULATION CONTAINING PHARMACEUTICAL COMPOSITION, KIT CONTAINING PHARMACEUTICAL COMPOSITION, PREPARATION METHOD FOR PHARMACEUTICAL COMPOSITION, AND USE OF PHARMACEUTICAL COMPOSITION” (Shanghai WD Pharmaceutical Co., Ltd, priority 2023, dated 2025).
